From publication PMC9851200, “Multiparameter phenotypic screening for endogenous TFEB and TFE3 translocation identifies novel chemical series modulating lysosome function” (Autophagy, 2022)

What was measured:
Type in all cases: binding
[1] = target: T1, kinases (KINOMEscan panel) (Homo sapiens, UniProt Q96PN8); settings: kinase TSSK3; NEW KINOMEscan
T1 sequence (Q96PN8 1-268): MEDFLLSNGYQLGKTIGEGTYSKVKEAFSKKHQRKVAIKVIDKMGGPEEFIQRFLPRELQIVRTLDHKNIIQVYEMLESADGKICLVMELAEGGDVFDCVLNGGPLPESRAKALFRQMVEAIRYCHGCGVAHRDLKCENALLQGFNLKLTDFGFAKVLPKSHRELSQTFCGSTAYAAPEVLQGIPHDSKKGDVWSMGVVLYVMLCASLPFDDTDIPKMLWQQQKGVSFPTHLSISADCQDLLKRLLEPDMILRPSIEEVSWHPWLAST

[2] = target: kinases (KINOMEscan panel) (Homo sapiens, UniProt Q9UM73); settings: kinase ALK; NEW KINOMEscan
Sequence of kinases (KINOMEscan panel) (Homo sapiens, UniProt Q9UM73) (Q9UM73 19-1620): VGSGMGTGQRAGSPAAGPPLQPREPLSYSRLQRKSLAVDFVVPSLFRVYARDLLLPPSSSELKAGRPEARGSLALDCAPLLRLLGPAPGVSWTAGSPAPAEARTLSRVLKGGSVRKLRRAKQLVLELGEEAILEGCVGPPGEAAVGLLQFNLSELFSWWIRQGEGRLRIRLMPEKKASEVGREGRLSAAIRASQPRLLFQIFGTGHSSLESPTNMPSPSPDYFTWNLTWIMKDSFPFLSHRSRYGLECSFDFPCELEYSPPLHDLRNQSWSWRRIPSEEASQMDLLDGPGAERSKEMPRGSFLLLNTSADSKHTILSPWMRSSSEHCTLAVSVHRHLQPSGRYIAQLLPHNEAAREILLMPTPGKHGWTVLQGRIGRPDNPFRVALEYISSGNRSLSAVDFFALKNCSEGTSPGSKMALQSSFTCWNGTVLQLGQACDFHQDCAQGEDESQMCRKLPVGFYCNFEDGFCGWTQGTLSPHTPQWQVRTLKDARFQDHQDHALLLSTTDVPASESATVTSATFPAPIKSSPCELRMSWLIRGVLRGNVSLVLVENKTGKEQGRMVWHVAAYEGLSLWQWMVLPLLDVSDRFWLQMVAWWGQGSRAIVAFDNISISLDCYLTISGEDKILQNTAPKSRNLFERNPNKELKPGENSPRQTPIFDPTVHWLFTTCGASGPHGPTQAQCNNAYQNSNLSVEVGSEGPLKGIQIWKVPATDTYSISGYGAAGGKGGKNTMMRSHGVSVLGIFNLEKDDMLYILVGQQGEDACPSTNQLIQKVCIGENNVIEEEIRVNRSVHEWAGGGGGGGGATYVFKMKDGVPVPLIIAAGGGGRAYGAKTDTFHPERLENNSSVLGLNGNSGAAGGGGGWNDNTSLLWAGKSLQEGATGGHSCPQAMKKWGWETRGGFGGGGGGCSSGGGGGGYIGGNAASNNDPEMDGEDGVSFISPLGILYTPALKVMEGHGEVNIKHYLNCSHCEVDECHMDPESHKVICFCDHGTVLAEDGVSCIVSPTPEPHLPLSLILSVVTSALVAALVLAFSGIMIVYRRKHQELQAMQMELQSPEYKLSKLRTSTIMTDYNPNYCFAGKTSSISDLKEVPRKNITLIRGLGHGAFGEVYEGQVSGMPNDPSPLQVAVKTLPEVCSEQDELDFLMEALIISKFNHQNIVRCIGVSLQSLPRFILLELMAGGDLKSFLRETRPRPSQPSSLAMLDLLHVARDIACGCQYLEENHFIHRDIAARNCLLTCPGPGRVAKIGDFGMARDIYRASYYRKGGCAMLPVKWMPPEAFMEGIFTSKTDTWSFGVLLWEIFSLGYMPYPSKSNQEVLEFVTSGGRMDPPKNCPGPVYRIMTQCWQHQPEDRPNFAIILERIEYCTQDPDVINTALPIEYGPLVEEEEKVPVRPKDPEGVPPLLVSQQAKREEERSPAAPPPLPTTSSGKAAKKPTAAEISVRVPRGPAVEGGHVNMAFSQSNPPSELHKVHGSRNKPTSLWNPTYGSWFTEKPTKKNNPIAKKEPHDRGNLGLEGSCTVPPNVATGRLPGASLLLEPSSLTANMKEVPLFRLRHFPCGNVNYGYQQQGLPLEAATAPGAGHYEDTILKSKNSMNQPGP

[3] = target: kinases (KINOMEscan panel) (Homo sapiens, UniProt O60331); settings: PIP5K1C; NEW KINOMEscan
[4] = target: kinases (KINOMEscan panel) (Homo sapiens, UniProt P48736); settings: kinase PIK3CG; NEW KINOMEscan
Sequence of kinases (KINOMEscan panel) (Homo sapiens, UniProt P48736) (P48736 whole entry): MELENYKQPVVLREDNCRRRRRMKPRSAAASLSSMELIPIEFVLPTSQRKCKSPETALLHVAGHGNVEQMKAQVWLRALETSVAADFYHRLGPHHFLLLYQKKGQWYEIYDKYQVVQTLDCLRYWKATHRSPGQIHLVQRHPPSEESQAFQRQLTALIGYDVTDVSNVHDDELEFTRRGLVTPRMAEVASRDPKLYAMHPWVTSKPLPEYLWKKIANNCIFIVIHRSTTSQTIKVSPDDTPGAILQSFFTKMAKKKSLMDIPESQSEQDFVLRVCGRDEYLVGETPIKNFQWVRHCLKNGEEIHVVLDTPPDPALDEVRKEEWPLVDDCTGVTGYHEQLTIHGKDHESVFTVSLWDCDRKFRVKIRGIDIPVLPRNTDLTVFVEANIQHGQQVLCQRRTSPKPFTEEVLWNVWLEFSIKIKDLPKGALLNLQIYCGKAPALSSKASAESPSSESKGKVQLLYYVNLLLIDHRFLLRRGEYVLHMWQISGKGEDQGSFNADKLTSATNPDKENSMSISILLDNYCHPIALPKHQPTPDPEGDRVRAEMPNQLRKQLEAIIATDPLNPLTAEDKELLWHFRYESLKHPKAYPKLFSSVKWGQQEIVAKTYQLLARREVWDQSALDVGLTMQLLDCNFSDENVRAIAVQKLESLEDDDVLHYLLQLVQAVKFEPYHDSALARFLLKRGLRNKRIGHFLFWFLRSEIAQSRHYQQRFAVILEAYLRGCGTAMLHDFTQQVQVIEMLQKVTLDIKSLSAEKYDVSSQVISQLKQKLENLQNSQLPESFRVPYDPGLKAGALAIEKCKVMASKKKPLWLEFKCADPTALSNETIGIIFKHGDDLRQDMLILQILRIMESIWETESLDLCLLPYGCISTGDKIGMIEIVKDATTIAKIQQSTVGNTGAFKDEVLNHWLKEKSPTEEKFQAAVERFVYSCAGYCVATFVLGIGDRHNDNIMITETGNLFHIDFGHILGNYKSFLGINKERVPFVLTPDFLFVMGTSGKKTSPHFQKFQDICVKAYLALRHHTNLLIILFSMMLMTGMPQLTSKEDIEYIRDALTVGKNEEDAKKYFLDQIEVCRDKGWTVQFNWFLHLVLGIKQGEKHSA

[5] = target: kinases (KINOMEscan panel) (Homo sapiens, UniProt P68400); settings: CSNK2A1; NEW KINOMEscan
[6] = target: T2, kinases (KINOMEscan panel) (Homo sapiens, UniProt Q6ZN16); settings: NEW KINOMEscan
T2 sequence (Q6ZN16 1-1313): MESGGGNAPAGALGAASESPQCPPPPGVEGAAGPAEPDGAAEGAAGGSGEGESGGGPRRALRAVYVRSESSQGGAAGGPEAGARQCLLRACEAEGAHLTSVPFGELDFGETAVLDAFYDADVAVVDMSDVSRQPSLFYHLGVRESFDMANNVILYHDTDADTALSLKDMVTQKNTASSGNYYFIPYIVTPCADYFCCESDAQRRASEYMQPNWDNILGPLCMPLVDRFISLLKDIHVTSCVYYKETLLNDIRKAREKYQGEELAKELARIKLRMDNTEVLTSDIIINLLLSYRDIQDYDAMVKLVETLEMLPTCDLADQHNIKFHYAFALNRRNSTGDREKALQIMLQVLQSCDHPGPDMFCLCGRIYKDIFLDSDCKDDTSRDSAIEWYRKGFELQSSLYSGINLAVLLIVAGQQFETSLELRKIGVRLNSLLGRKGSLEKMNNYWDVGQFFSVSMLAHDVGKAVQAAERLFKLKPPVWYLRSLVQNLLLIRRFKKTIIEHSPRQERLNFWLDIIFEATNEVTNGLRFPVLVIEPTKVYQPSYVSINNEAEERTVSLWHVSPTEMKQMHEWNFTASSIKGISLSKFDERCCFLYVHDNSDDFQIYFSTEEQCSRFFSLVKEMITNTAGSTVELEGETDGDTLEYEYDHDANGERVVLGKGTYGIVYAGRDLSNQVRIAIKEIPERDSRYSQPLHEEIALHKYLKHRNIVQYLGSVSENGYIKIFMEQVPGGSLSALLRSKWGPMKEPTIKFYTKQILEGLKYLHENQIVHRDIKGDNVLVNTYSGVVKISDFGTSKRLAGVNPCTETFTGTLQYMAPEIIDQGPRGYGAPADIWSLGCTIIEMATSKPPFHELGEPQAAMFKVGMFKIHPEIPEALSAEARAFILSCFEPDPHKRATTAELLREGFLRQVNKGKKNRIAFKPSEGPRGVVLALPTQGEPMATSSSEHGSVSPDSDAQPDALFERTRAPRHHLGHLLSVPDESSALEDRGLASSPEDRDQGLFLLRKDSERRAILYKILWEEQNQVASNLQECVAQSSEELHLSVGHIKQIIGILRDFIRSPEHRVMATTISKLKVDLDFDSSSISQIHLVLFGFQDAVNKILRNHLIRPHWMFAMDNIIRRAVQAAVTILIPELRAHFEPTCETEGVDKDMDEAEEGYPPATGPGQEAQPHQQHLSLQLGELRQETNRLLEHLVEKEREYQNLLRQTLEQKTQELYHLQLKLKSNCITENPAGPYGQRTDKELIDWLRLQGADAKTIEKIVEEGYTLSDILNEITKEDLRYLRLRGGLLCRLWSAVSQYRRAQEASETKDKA

[7] = target: T3, kinases (KINOMEscan panel) (Homo sapiens, UniProt Q99759); settings: MAP3K3; NEW KINOMEscan
T3 sequence (Q99759 1-626): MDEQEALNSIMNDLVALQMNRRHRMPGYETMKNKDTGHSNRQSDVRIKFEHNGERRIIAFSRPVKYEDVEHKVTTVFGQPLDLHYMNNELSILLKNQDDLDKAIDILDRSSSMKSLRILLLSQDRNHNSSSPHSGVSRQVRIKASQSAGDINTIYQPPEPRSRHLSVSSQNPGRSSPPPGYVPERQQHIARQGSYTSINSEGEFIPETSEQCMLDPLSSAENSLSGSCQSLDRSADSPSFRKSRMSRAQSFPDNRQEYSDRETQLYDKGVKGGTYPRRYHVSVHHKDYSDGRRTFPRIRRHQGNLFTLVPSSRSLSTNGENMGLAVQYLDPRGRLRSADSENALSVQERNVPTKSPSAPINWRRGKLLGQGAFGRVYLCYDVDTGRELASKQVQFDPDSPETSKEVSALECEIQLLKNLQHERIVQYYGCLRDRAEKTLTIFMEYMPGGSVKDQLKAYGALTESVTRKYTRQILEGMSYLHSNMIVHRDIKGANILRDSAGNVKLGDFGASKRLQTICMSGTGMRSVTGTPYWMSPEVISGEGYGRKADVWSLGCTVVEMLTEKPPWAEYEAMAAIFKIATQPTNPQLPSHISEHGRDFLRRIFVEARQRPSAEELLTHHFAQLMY

[8] = target: kinases (KINOMEscan panel) (Plasmodium falciparum, UniProt P62344); settings: PFCDPK1(P.falciparum); NEW KINOMEscan
Sequence of kinases (KINOMEscan panel) (Plasmodium falciparum, UniProt P62344) (P62344 whole entry): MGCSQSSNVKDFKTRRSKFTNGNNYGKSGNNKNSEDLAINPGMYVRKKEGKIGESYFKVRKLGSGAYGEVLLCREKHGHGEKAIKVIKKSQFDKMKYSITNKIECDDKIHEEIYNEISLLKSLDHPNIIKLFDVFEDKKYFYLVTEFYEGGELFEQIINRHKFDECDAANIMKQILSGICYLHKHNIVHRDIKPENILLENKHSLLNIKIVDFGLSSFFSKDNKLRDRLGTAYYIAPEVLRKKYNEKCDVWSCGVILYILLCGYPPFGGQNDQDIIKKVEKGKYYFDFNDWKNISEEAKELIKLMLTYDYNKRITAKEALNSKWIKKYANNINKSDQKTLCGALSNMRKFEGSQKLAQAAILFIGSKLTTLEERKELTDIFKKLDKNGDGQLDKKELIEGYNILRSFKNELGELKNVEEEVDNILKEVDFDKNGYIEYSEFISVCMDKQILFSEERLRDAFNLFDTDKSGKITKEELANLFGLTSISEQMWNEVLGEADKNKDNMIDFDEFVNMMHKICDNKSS

[9] = target: kinases (KINOMEscan panel) (Homo sapiens, UniProt Q86Z02); settings: HIPK1; NEW KINOMEscan
[10] = target: kinases (KINOMEscan panel) (Homo sapiens, UniProt Q06187); settings: kinase BTK; NEW KINOMEscan
Sequence of kinases (KINOMEscan panel) (Homo sapiens, UniProt Q06187) (Q06187 whole entry): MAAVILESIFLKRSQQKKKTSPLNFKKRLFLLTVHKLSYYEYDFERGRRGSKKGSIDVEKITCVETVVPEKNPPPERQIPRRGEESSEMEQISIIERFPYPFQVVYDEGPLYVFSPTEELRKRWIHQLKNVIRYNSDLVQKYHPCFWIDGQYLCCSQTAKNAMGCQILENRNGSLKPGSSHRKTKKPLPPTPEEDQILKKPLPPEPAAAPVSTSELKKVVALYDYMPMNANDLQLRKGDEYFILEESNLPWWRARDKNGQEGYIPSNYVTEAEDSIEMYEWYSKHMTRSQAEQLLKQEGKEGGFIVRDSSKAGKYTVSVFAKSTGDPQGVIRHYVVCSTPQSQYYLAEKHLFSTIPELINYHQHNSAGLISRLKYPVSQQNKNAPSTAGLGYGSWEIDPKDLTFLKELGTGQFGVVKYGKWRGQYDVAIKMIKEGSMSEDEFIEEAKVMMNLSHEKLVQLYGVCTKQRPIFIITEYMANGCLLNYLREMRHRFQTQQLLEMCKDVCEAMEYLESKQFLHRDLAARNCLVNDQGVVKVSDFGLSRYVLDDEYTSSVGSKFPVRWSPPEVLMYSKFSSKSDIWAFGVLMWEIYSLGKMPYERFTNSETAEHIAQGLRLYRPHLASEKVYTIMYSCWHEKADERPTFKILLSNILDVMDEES

[11] = target: kinases (KINOMEscan panel) (Homo sapiens, UniProt P42336, C420R); settings: PIK3CA(C420R); NEW KINOMEscan
Sequence of kinases (KINOMEscan panel) (Homo sapiens, UniProt P42336, C420R) (P42336 whole entry C420R): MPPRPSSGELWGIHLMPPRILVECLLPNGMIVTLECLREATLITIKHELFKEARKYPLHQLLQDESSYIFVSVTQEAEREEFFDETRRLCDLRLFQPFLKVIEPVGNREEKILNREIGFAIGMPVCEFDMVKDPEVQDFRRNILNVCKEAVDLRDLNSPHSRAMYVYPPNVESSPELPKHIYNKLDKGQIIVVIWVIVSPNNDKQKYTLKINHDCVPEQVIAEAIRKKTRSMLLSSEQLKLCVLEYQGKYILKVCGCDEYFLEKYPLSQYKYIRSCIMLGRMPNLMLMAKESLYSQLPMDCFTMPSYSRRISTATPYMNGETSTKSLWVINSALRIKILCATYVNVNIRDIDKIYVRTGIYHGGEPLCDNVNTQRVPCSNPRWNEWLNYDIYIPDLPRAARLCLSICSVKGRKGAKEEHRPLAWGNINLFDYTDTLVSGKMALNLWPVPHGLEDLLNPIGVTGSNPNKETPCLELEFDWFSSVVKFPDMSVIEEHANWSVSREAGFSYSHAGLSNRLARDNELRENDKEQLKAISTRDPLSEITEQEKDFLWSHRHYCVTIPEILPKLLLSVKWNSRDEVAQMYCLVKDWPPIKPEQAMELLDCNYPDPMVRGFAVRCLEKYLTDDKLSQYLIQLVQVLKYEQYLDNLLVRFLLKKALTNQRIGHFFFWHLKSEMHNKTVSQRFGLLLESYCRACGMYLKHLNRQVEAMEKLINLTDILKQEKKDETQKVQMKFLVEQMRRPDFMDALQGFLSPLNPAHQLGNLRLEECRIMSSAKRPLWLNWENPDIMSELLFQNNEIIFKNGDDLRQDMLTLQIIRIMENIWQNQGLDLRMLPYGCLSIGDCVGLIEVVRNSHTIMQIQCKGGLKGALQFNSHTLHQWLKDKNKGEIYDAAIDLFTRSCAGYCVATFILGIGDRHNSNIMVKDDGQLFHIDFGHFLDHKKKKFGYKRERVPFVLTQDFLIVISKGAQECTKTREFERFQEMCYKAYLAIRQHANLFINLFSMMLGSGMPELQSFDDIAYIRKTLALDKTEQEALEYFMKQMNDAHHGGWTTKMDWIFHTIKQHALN

SMILES | KINOMEscan TSSK3 [1] | KINOMEscan ALK [2] | KINOMEscan PIP5K1C [3] | KINOMEscan PIK3CG [4] | KINOMEscan CSNK2A1 [5] | KINOMEscan MAP3K15 [6] | KINOMEscan MAP3K3 [7] | KINOMEscan PFCDPK1(P.falciparum) [8] | KINOMEscan HIPK1 [9] | KINOMEscan BTK [10] | KINOMEscan PIK3CA(C420R) [11]
Cc1cccc(-c2nc(Nc3ccc4nn(C)cc4c3)c3ccccc3n2)n1 [NK167] | 0 | 22 | 18 | 0 | 0 | 21 | 0 | 0 | 27 | 0 | 0
Cc1cccc(-c2nc(N(C)c3ccc4ncsc4c3)c3ccccc3n2)n1 [NK-161] | 6 | 9 | 1 | 8 | 19 | 21 | 0 | 0 | 5 | 10 | 0
